Results: patent US20250222108A1, “MEDICAL AGENT INCLUDING ADJUVANT AND COMPOSITE OF PHOTOSENSITIVE MOLECULE AND MOLECULE BINDING TO CANCER-SPECIFIC CELL SURFACE MOLECULE” (KYOTO UNIVERSITY, priority 2021, published 2025)

System: KPC-N cells
Experiment: Antitumor effect by TLR3 ligand, pancreatic cancer model
Type: in vivo, C57BL/6 mice
Details: 50 μg intratumoral on day 8; N=6
Description: PolyI:C (Poly (I:C) (HMW) VacciGrade™: InvivoGen), which is a TLR3 ligand, was used.
1.5×10^6 KPC-N cells were subcutaneously transplanted to the back of 6- to 8-week-old C57BL/6 mice, and two groups (each group N=6) of non-treatment group (Control) and polyI:C group were established. To the tumor of the mice on day 8 after subcutaneous transplantation was topically injected (intratumoral administration) 50 μg of polyI:C.

## polyI:C
  antitumor effect (tumor size): no antitumor effect
